Test results reported in PMC9967275, “Screening the Pathogen Box to Discover and Characterize New Cruzain and TbrCatL Inhibitors” (Pathogens, 2023).
“Also recorded” adds a separate entry of the source. Where two headings read alike, the source gives them in different places.

Tests used:
cruzain [1] = biological target: T1, cruzain (Trypanosoma cruzi, UniProt P25779); experiment: biochemical; details: for Cruzain Inhibition 0’: 0’ (no pre-incubation); for Cruzain Inhibition 0’ / Cruzain Inhibition 10’: sheet Screening results; for Cruzain Inhibition 10’: 10’ (pre-incubation); for Cruzain 0’ Inhibition: 0’ (pre-incubation time); for Cruzain 10’ Inhibition: 10’ (pre-incubation time)
Procedure, shortened: (§1)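 Recombinant enzymes assayed by Z-Phe-Arg-AMC cleavage at 25 °C, fluorescence 340/440 nm over 5–7 min, with 10 min or no enzyme–compound preincubation.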

TbrCatL = biological target: T2, TbrCatL (Trypanosoma brucei rhodesiense, UniProt Q95PM0); experiment: TbrCatL enzymatic inhibition assay (cleavage of fluorogenic substrate Z-FR-AMC); type: biochemical; details: for TbrCatL Inhibition 0’: 0’ (no pre-incubation); for TbrCatL Inhibition 0’ / TbrCatL Inhibition 10’: sheet Screening results; for TbrCatL Inhibition 10’: 10’ (pre-incubation); for TbrCatL 0’ Inhibition: 0’ (pre-incubation time); for TbrCatL 0’ Inhibition / TbrCatL 10’ Inhibition: sheet "Screening results"; for TbrCatL 10’ Inhibition: 10’ (pre-incubation time)
T2 construct: Conor Caffrey (University of California San Diego)
Procedure, shortened: as §1

cruzain [2] = biological target: T1, cruzain; experiment: Aggregation counter-assays: cruzain inhibition at varying Triton X-100 and after pre-incubation with BSA; type: biochemical; parameters: Cruzain is the truncated, recombinant-expressed cruzipain 1; Brian Shoichet (University of California San Francisco); details: for % Cruzain Inhibition (Mean ± SEM) 0.001% Triton + BSA 1 mg/mL / % Cruzain Inhibition (Mean ± SEM) 0.001% Triton X-100 / % Cruzain Inhibition (Mean ± SEM) 0.01% Triton X-100 / % Cruzain Inhibition (Mean ± SEM) 0.1% Triton X-100: compound µM: MMV687246 12.5, MMV687812 3.125, MMV688179 1.563, MMV688362 3.125, MMV688466 6.25, MMV690028 25
Protocol: To assess the effects of the Triton X-100 concentration on cruzain inhibition, assays were performed using 0.001%, 0.01%, and 0.1% Triton X-100. To evaluate the impact of pre-incubation with bovine serum albumin (BSA), 50 µL of a solution of the compound in the assay buffer containing 0.001% of Triton X-100 was incubated with 4 mg/mL of BSA (Sigma-Aldrich) for 10′ in a 96-well plate. Next, 50 µL of a solution containing circa 2 nM of cruzain in the same buffer was added to each well and incubated for another 10′. Finally, 100 µL of a solution of 5 µM Z-FR-AMC in the same buffer was added to each well and the fluorescence was immediately read. The final compound concentration varies and was selected to be near the compound IC50.
To investigate if inhibition was due to colloidal aggregation, a common cause of unspecific enzyme inhibition in in vitro assays, we employed two well-established experiments: the comparison of percentages of inhibition at varying Triton X-100 concentrations and the effect of compound pre-incubation with BSA on the percentage of inhibition. […] Pre-incubating a compound that aggregates with BSA saturates the protein-binding capacity of the aggregate.

cruzain [3] = biological target: T1, cruzain; experiment: Mechanism of inhibition against cruzain (Michaelis-Menten, Lineweaver-Burk); type: biochemical; parameters: Cruzain is the truncated, recombinant-expressed cruzipain 1; Brian Shoichet (University of California San Francisco)
Protocol: Non-linear regression to Michaelis-Menten models and linear regression for the Lineweaver-Burk plot were performed. Ki was estimated by both methods. The effect of the inhibitor concentration on the Km app was evaluated using the General Linear F-test.

[4] = IC50 (µM ± SEM %) Cruzain 0′, no pre-incubation
[5] = IC50 (µM ± SEM %) Cruzain 10′ inc, 10′ pre-incubation
[6] = read-out: Inhibition at 5 µM (Mean ± SEM %) Cruzain 0′, 5 µM, no pre-incubation, initial screening
[7] = read-out: Inhibition at 5 µM (Mean ± SEM %) Cruzain 10′ inc, 5 µM, 10′ pre-incubation, initial screening
[8] = read-out: Inhibition at 100 µM (Mean ± SEM %) Cruzain 0′, 100 µM, no pre-incubation, solid samples
[9] = read-out: Inhibition at 100 µM (Mean ± SEM %) Cruzain 10′ inc, 100 µM, 10′ pre-incubation, solid samples
[10] = read-out: Inhibition of cruzain or TbrCatL (either enzyme) in the initial screening, 5 µM, either cruzain or TbrCatL, with or without pre-incubation
[11] = IC50 (µM ± SEM %) TbrCatL 0′, no pre-incubation
[12] = IC50 (µM ± SEM %) TbrCatL 10′ inc, 10′ pre-incubation
[13] = read-out: Inhibition at 5 µM (Mean ± SEM %) TbrCatL 0′
[14] = read-out: Inhibition at 5 µM (Mean ± SEM %) TbrCatL 10′ inc
[15] = read-out: Inhibition at 100 µM (Mean ± SEM %) TbrCatL 0′
[16] = read-out: Inhibition at 100 µM (Mean ± SEM %) TbrCatL 10′ inc
[17] = read-out: Cruzain 0’ Inhibition, 0’ (pre-incubation time), sheet "Screening results"
[18] = read-out: Cruzain 10’ Inhibition, 10’ (pre-incubation time), sheet "Screening results"
[19] = read-out: TbrCatL 0’ Inhibition
[20] = read-out: TbrCatL 10’ Inhibition

T1 sequence (P25779 123-337 limits assumed): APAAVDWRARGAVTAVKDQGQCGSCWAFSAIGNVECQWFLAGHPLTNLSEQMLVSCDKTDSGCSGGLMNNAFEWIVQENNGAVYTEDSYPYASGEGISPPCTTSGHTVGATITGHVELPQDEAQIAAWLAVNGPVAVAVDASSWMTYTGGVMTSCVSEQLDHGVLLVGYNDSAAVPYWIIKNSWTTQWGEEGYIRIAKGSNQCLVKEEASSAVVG
T2 sequence (Q95PM0 entry or part of it): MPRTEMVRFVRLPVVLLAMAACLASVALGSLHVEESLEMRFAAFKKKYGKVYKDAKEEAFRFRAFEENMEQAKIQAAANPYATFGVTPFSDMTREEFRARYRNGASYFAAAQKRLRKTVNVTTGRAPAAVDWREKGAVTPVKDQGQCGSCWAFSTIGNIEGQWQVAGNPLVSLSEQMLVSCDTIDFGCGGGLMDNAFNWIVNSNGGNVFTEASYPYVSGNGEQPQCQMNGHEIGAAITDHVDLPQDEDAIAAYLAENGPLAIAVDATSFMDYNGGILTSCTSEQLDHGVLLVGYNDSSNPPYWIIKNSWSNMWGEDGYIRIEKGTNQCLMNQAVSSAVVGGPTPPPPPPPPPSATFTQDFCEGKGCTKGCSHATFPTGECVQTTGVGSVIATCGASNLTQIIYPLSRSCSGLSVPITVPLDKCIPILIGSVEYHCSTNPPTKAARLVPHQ

Compound | IC50 (cruzain [1]; [4]) | IC50 (cruzain [1]; [5]) | inhibition at 5 µM (cruzain [1]; [6]) | inhibition at 5 µM (cruzain [1]; [7]) | inhibition at 100 µM (cruzain [1]; [8]) | inhibition at 100 µM (cruzain [1]; [9]) | inhibition at 5 µM (cruzain [1]; [10]) | IC50 (TbrCatL; [11]) | IC50 (TbrCatL; [12]) | inhibition at 5 µM (TbrCatL; [13]) | inhibition at 5 µM (TbrCatL; [14]) | inhibition at 100 µM (TbrCatL; [15]) | inhibition at 100 µM (TbrCatL; [16]) | % Cruzain Inhibition (Mean ± SEM) 0.001% Triton + BSA 1 mg/mL (cruzain [2]) | % Cruzain Inhibition (Mean ± SEM) 0.001% Triton X-100 (cruzain [2]) | % Cruzain Inhibition (Mean ± SEM) 0.1% Triton X-100 (cruzain [2]) | Cruzain Inhibition 0’ (cruzain [1]) | Cruzain Inhibition 10’ (cruzain [1]) | TbrCatL Inhibition 0’ (TbrCatL) | TbrCatL Inhibition 10’ (TbrCatL) | also measured
Cn1ccnc1CNCCS(=O)(=O)c1cccc(Nc2ccc(-c3cccc(F)c3)cn2)c1 [MMV688466] | 9 ± 1 µM | 25 ± 6 µM | 41 ± 2% | 49 ± 5% | 58 ± 27% | 98 ± 1% | ≥ 40% | 4 ± 1 µM | 11 ± 4 µM | 29 ± 2% | 54 ± 8% | 96 ± 3% | 100% | 96 ± 3% | 83 ± 3% | 82 ± 11% |  |  |  |  | % Cruzain Inhibition (Mean ± SEM) 0.01% Triton X-100 (cruzain [2]): 32 ± 5%
COc1ccc(C2=NN(C3CCCCCC3)C(=O)C2(C)C)cc1OCCCCOc1ccc(-c2nn[nH]n2)cc1 [MMV690028] | 10 ± 3 µM | 13 ± 5 µM | 34 ± 8% | 27 ± 4% | 100% | 100% | ≥ 40% | 18 ± 7 µM | 27 ± 3 µM | 49 ± 4% | 23 ± 4% | 100% | 88 ± 3% | 91 ± 7% | 69 ± 14% |  |  |  |  |  | 
CN1CCN(CCCOc2ncc(Nc3ncc(-c4ccc(C(F)(F)F)c(F)c4)nc3C(N)=O)cn2)CC1 [MMV687812] | 2.2 ± 0.3 µM | 2.6 ± 0.03 µM | 41 ± 2% | 27% | 100% | 95% | ≥ 40% | 3.45 ± 0.05 µM | 3.6 ± 0.3 µM | 11 ± 3% | 5 ± 1% | 90 ± 2% | 93% | 85 ± 1% | 92 ± 0% | 54 ± 1% |  |  |  |  | IC50 (cruzain [1]; IC50 against cruzain and TbrCatL (summary), cruzain and TbrCatL, with or without pre-incubation): 2 to 4 µM; inhibition at 5 µM (cruzain [1]; [17]): 42%; inhibition at 5 µM (cruzain [1]; [18]): 27%; inhibition at 5 µM (TbrCatL; [19]): 11%; inhibition at 5 µM (TbrCatL; [20]): 5.3%; Effect of a 10-fold increase in the concentration of Triton X-100 on cruzain inhibition (cruzain [2]; near the IC50): some reduction in the inhibition; Effect of pre-incubation of the compound with BSA on cruzain inhibition (cruzain [2]; near the IC50): did not reduce the inhibition of cruzain
CN1CCN(S(=O)(=O)c2ccc(-c3ccc4c(Nc5ccc6nn[nH]c6c5)ccnc4c3)cc2)CC1 [MMV687246] | 14 ± 5 µM | 10 ± 2 µM | 24 ± 3% | 39 ± 3% | 72 ± 1% | 92 ± 3% | ≥ 40% | 9 ± 3 µM | 4.2 ± 0.6 µM | 29 ± 1% | 49 ± 4% | 92 ± 6% | 99 ± 1% | 45 ± 1% | 62 ± 3% | 32 ± 2% |  |  |  |  | Change of IC50 with vs without 10′ pre-incubation (cruzain [1]; against cruzain, 10 min): up to 2 fold; inhibition at 5 µM (cruzain [1]; [17]): 24%; inhibition at 5 µM (cruzain [1]; [18]): 39%; inhibition at 5 µM (TbrCatL; [19]): 29%; inhibition at 5 µM (TbrCatL; [20]): 49%; % Cruzain Inhibition (Mean ± SEM) 0.01% Triton X-100 (cruzain [2]): 51 ± 0%; Ki (cruzain [3]): 57 ± 6 µM; Mechanism of inhibition of cruzain (cruzain [3]): mixed inhibitor; also recorded: mixed inhibition; α value (mixed inhibition) (cruzain [3]; mixed model): 0.7 ± 0.2
CC(C)C(C(=O)Nc1ccc(S(=O)(=O)N(C)C)cc1)c1ccc(Cl)cc1 (stereo not shown) [MMV020391] |  |  |  |  |  |  |  |  |  |  |  |  |  |  |  |  | -1.5% | 2% | -3.4% | -2.5% | 
COC(=O)c1c(NC(=O)c2cc3ccccc3oc2=O)sc2c1CCN(Cc1ccccc1)C2 [MMV676480] |  |  |  |  |  |  |  |  |  |  |  |  |  |  |  |  | 24% | 5.6% | 0.5% | -3.2% | 
Cn1ncc2c(N3CCOCC3)nc(NCCc3c[nH]c4ccccc34)nc21 [MMV676382] |  |  |  |  |  |  |  |  |  |  |  |  |  |  |  |  | 17% | 15% | 4.7% | 7.5% | 
COc1cc(C(F)(F)F)nc2ccc(C)c(N)c12 [MMV047015] |  |  |  |  |  |  |  |  |  |  |  |  |  |  |  |  |  |  |  |  | Cruzain 0’ Inhibition (cruzain [1]; sheet "Screening results"): 1.1%; Cruzain 10’ Inhibition (cruzain [1]; sheet "Screening results"): 5.5%; TbrCatL 0’ Inhibition (TbrCatL): 15%; TbrCatL 10’ Inhibition (TbrCatL): 4%
Cc1cc(C)c2cc(C(=O)NC3CCCCCCC3)[nH]c2c1 [MMV687146] |  |  |  |  |  |  |  |  |  |  |  |  |  |  |  |  |  |  |  |  | Cruzain 0’ Inhibition (cruzain [1]; sheet "Screening results"): 4.7%; Cruzain 10’ Inhibition (cruzain [1]; sheet "Screening results"): 4.7%; TbrCatL 0’ Inhibition (TbrCatL): -1.1%; TbrCatL 10’ Inhibition (TbrCatL): -12%
